Source: patent publication US7105505B2, “Benzimidazole derivatives useful as histamine H3 antagonists” (Schering Corporation, priority 2002, dated 2006)
pKi: −log10 of the molar value.

Assays:
[1] = target: T1, human histamine H3 receptor (Homo sapiens, UniProt Q9Y5N1); test: rHu H3 Binding Assay (HEK-293 membranes); details: Receptor Source rHu, 1.2 nM [3H]Nα-methylhistamine
T1 construct: expressed in transfected cells
Protocol: General Procedure for rHu H3Binding Assay
[^3H]N^∝-methylhistamine (82 Ci/mmole) was obtained from Dupont NEN. Thioperamide was obtained from the Chemical Research Department, Schering-Plough Research Institute.
HEK-293 human embryonic kidney cells stably expressing the human histamine H3 receptor were cultured in Dulbecco's modified Eagle's medium/10% fetal calf serum/penicillin (100 U/ml)/streptomycin (100 μg/ml)/Geneticin (0.5 mg/ml) at 37° C. in a humidified 5% CO2 atmosphere. Cells were harvested between passages five and twenty at 37° C. in 5 mM EDTA/Hank's balanced salt solution and processed for membrane preparation. After low-speed centrifugation, ten min at 1000×g, they were put into ten volumes of ice-cold buffer and disrupted with a Polytron (PTA 35/2 tip, 30 sec at setting 6). After subsequent low-speed centrifugation, supernatant was centrifuged ten min at 50,000×g. The high-speed pellet was resuspended in the original volume of buffer, a sample was taken for protein assay (bicinchoninic acid, Pierce) and the suspension was centrifuged again at 50,000×g. Membranes were resuspended at 1 mg of protein/ml of buffer and frozen at −80° C. until use.
Membrane (15 μg of protein) was incubated with 1.2 nM [^3H]N^∝-methyl-histamine, without or with inhibitor compounds, in a total volume of 200 μl of buffer. Nonspecific binding was determined in the presence of 10^−5 M thioperamide. Assay mixtures were incubated for 30 min at 30° C. in polypropylene, 96-well, deep-well plates, then filtered through 0.3% polyethylenimine-soaked GF/B filters. These were washed three times with 1.2 ml of 4° C. buffer, dried in a microwave oven, impregnated with Meltilex wax scintillant and counted at 40% efficiency in a Betaplate scintillation counter (Wallac).
IC50 values were interpolated from the data or were determined from curves fit to the data with Prism nonlinear least squares curve-fitting program (GraphPad Software, San Diego, Calif.). Ki values were determined from IC50 values according to the Cheng and Prusoff equation.

[2] = target: T2, H3 receptors (Cavia porcellus, UniProt Q9JI35); test: H3 Receptor Binding Assay (guinea pig brain membranes); details: Receptor Source Guinea pig, [3H]R-α-methyl histamine or [3H]Nα-methyl histamine
T2 construct: The source of the H3 receptors in this experiment was guinea pig brain; from tissue; host or cells: guinea pig brain membranes
Protocol: General Procedure for H3Receptor Binding Assay
The source of the H3 receptors in this experiment was guinea pig brain. The animals weighed 400–600 g. The brain tissue was homogenized with a solution of 50 mM Tris, pH 7.5. The final concentration of tissue in the homogenization buffer was 10% w/v. The homogenates were centrifuged at 1,000×g for 10 min. in order to remove clumps of tissue and debris. The resulting supernatants were then centrifuged at 50,000×g for 20 min. in order to sediment the membranes, which were next washed three times in homogenization buffer (50,000×g for 20 min. each). The membranes were frozen and stored at −70° C. until needed.
All compounds to be tested were dissolved in DMSO and then diluted into the binding buffer (50 mM Tris, pH 7.5) such that the final concentration was 2 μg/ml with 0.1% DMSO. Membranes were then added (400 μg of protein) to the reaction tubes. The reaction was started by the addition of 3 nM [^3H]R-α-methyl histamine (8.8 Ci/mmol) or 3 nM [^3H]N^α-methyl histamine (80 Ci/mmol) and continued under incubation at 30° C. for 30 min. Bound ligand was separated from unbound ligand by filtration, and the amount of radioactive ligand bound to the membranes was quantitated by liquid scintillation spectrometry. All incubations were performed in duplicate and the standard error was always less than 10%. Compounds that inhibited more than 70% of the specific binding of radioactive ligand to the receptor were serially diluted to determine a Ki (nM).

T1 sequence (Q9Y5N1 whole entry): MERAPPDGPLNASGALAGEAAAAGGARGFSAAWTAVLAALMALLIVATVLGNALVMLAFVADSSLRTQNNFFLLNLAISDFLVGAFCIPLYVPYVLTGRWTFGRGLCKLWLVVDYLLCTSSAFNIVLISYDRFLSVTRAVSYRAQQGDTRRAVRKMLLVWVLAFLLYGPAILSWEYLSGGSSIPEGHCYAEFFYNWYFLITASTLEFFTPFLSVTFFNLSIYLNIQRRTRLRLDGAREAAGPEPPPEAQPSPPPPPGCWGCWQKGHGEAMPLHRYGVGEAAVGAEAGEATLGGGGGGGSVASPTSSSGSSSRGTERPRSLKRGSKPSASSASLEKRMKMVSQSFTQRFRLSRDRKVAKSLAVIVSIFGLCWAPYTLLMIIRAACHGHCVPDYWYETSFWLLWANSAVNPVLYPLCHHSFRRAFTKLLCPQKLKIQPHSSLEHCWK
T2 sequence (Q9JI35 whole entry): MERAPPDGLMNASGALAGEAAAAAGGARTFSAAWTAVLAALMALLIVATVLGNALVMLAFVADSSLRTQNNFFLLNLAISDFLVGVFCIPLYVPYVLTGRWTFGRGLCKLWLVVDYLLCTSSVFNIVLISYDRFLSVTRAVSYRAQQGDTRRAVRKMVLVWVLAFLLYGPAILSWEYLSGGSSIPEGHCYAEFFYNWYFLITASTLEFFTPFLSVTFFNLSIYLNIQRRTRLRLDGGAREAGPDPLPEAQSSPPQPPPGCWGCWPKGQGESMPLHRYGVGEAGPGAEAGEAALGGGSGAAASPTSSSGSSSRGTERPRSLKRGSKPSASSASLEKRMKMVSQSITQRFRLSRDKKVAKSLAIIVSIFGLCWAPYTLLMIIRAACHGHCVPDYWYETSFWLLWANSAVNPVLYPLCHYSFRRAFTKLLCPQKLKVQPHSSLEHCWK

Row | pKi [1] | pKi [2] | SMILES
1 | 8.40 |  | CCOc1nc2cc(F)ccc2n1C1CCN(C(=O)C2(F)CCN(Cc3cnc(N)nc3)CC2)CC1 [Example 270]
2 | 8.40 |  | CCCOc1nc2cc(F)ccc2n1C1CCN(C(=O)C2CCN(Cc3cnc(N)nc3)CC2)CC1 [Example 460]
3 | 8.40 |  | CSc1nc2cc(Cl)ccc2n1C1CCN(C(=O)C2CCN(Cc3ccnnc3)CC2)CC1 [Example 628]
4 | 8.70 |  | CCOc1nc2cc(F)ccc2n1C1CCN(C(=O)C2CCN(Cc3ccnnc3)CC2)CC1 [Example 512]
5 | 7.52 |  | Nc1ncc(CN2CCC(F)(C(=O)N3CCC(n4c(-c5cccc[n+]5[O-])nc5cccnc54)CC3)CC2)cn1 [Example 388]
6 | 8.40 |  | COc1nc2cc(F)ccc2n1C1CCN(C(=O)C2(F)CCN(Cc3cnc(N)nc3)CC2)CC1 [Example 297]
7 | 8.05 |  | CCOc1nc2cc(Cl)ccc2n1C1CCN(C(=O)C2CCN(Cc3ccnnc3)CC2)CC1 [Example 592]
8 | 8.70 |  | Nc1cc(CN2CCC(F)(C(=O)N3CCC(n4c(N5CCOCC5)nc5cc(F)ccc54)CC3)CC2)ccn1 [Example 165]
9 | 8.22 |  | CCCSc1nc2cccnc2n1C1CCN(C(=O)C2CCN(Cc3ccnnc3)CC2)CC1 [Example 588]
10 | 7.36 |  | CCSc1nc2cc(C(F)(F)F)ccc2n1C1CCN(C(=O)C2CCN(Cc3cnc(N)nc3)CC2)CC1 [Example 577]
11 | 8.70 |  | CC(C)Oc1nc2cc(F)ccc2n1C1CCN(C(=O)C2(F)CCN(Cc3cnc(N)nc3)CC2)CC1 [Example 326]
12 |  | 9.00 | Nc1cc(CN2CCC(C(=O)N3CCC(n4c(-c5ccccn5)nc5cc(F)c(F)cc54)CC3)CC2)ccn1 [Example 71]
13 | 7.77 |  | CCc1nc2cc(F)ccc2n1C1CCN(C(=O)C2CCN(Cc3cnc(N)nc3)CC2)CC1 [Example 598]
14 |  | 7.89 | Nc1cc(CN2CCC(C(=O)N3CCC(c4nc5ccc(Cl)cc5[nH]4)CC3)CC2)ccn1 [Example 3]
15 | 9.00 |  | Nc1cc(CCCN2CCC(C(=O)N3CCC(n4c(-c5ccccn5)nc5cccnc54)CC3)CC2)ccn1 [Example 608]
16 | 9.00 |  | Nc1ncc(CN2CCC(F)(C(=O)N3CCC(n4c(Oc5ccccc5)nc5cc(F)ccc54)CC3)CC2)cn1 [Example 449]
17 | 9.00 |  | CSc1nc2cc(F)ccc2n1C1CCN(C(=O)C2CCN(Cc3ccnnc3)CC2)CC1 [Example 493]
18 | 8.40 |  | CCCOc1nc2cccnc2n1C1CCN(C(=O)C2CCN(Cc3ccnnc3)CC2)CC1 [Example 552]
19 | 8.40 |  | Nc1ncc(CN2CCC(F)(C(=O)N3CCC(n4c(-c5ccoc5)nc5cccnc54)CC3)CC2)cn1 [Example 281]
20 | 8.40 |  | CSc1nc2cc(F)ccc2n1C1CCN(C(=O)C2CCN(Cc3cnc(N)nc3)CC2)CC1 [Example 269]
21 | 8.30 |  | CSc1nc2cccnc2n1C1CCN(C(=O)C2(F)CCN(Cc3cnc(N)nc3)CC2)CC1 [Example 315]
22 |  | 8.15 | Nc1ncc(CN2CCC(C(=O)N3CCC(n4c(-c5ccccn5)nc5cc(F)ccc54)CC3)CC2)cn1 [Example 211]
23 |  | 9.00 | Cc1cc(-c2nc3cc(F)ccc3n2C2CCN(C(=O)C3CCN(Cc4ccnc(N)c4)CC3)CC2)no1 [Example 94]
24 | 8.70 |  | CSc1nc2cc(F)c(F)cc2n1C1CCN(C(=O)C2(F)CCN(Cc3ccnc(N)c3)CC2)CC1 [Example 574]

Row | pKi [1] | pKi [2] | SMILES
25 | 9.00 |  | CSc1nc2cc(F)ccc2n1C1CCN(C(=O)C2CCN(Cc3ccnc(N)c3)CC2)CC1 [Example 109]
26 | 9.00 |  | O=C(C1CCN(Cc2cc[nH]n2)CC1)N1CCC(n2c(-c3ccccn3)nc3cc(F)ccc32)CC1 [Example 442]
27 | 9.00 |  | Nc1cc(CN2CCC(C(=O)N3CCC(n4c(-c5ccccn5)nc5cc(F)ccc54)CC3)CC2)ccn1 [Example 1]
28 | 8.52 |  | CSc1nc2cc(F)ccc2n1C1CCN(C(=O)C2(F)CCN(Cc3cnc(N)nc3)CC2)CC1 [Example 290]
29 | 8.05 |  | Nc1ncc(CN2CCC(F)(C(=O)N3CCC(n4c(-c5ccccn5)nc5cccnc54)CC3)CC2)cn1 [Example 5]
30 | 7.39 |  | CSc1nc2cc(S(C)(=O)=O)ccc2n1C1CCN(C(=O)C2CCN(Cc3ccnnc3)CC2)CC1 [Example 595]
31 |  | 8.00 | Nc1cc(CN2CCC(C(=O)N3CCC(n4c(-c5cc(-c6ccc(F)cc6)on5)nc5cccnc54)CC3)CC2)ccn1 [Example 195]
32 | 8.70 |  | COc1nc2cc(F)ccc2n1C1CCN(C(=O)C2CCN(Cc3ccnnc3)CC2)CC1 [Example 571]
33 |  | 7.89 | Nc1ncc(CN2CCC(F)(C(=O)N3CCC(n4c(-c5ccc(F)cc5F)nc5cc(F)ccc54)CC3)CC2)cn1 [Example 254]
34 |  | 9.40 | Nc1cc(CN2CCC(C(=O)N3CCC(n4c(-c5ccc(F)cc5)nc5cccnc54)CC3)CC2)ccn1 [Example 173]
35 | 8.30 |  | O=C(N1CCC(n2c(-c3ccccn3)nc3cc(F)ccc32)CC1)C1(F)CCN(Cc2ccnnc2)CC1 [Example 423]
36 | 8.40 |  | CCCOc1nc2cc(F)ccc2n1C1CCN(C(=O)C2(F)CCN(Cc3cnc(N)nc3)CC2)CC1 [Example 459]
37 | 8.30 |  | CCOc1nc2cccnc2n1C1CCN(C(=O)C2(F)CCN(Cc3cnc(N)nc3)CC2)CC1 [Example 316]
38 | 8.70 |  | CCCc1nc2cc(F)ccc2n1C1CCN(C(=O)C2CCN(Cc3ccnnc3)CC2)CC1 [Example 619]
39 | 7.85 |  | Nc1ncc(CN2CCC(C(=O)N3CCC(n4c(SCc5ccccc5)nc5cc(F)ccc54)CC3)CC2)cn1 [Example 547]
40 | 8.05 |  | CCCc1nc2cc(F)ccc2n1C1CCN(C(=O)C2CCN(Cc3cnc(N)nc3)CC2)CC1 [Example 618]
41 | 8.00 |  | CCc1nc2cc(F)ccc2n1C1CCN(C(=O)C2(F)CCN(Cc3cnc(N)nc3)CC2)CC1 [Example 468]
42 | 8.00 |  | CSc1nc2cc(Cl)ccc2n1C1CCN(C(=O)C2(F)CCN(Cc3cnc(N)nc3)CC2)CC1 [Example 625]
43 | 8.15 |  | CSc1nc2cc(Cl)ccc2n1C1CCN(C(=O)C2CCN(Cc3cnc(N)nc3)CC2)CC1 [Example 502]
44 |  | 9.30 | Nc1cc(CN2CCC(C(=O)N3CCC(n4c(C5CC5)nc5cccnc54)CC3)CC2)ccn1 [Example 170]
45 | 7.72 |  | O=C(C1CCN(Cc2ccnnc2)CC1)N1CCC(n2c(-c3ccccn3)nc3cc(Cl)ccc32)CC1 [Example 557]
46 |  | 9.52 | Nc1cc(CN2CCC(C(=O)N3CCC(n4c(N5CCOCC5)nc5cc(F)ccc54)CC3)CC2)ccn1 [Example 120]
47 |  | 7.52 | Nc1cc(CN2CCC(C(=O)N3CCC(n4c(-c5cc(Cl)cc(Cl)c5)nc5ccc(Cl)cc54)CC3)CC2)ccn1 [Example 54]
